{"source": "paper PMC4919369", "about": "“A phase I study of the investigational NEDD8-activating enzyme inhibitor pevonedistat (TAK-924/MLN4924) in patients with metastatic melanoma” (Investigational New Drugs, 2016)", "key": {"clinical": {"test": "clinical", "settings": "human, in vivo", "quoted_text": "(§3) Blood samples (3 mL) for PK analysis were collected during Cycle 1. On schedule A, serial samples were collected within 1 h before dosing on Day 1, immediately after completion of infusion (immediately before switching off infusion pump), and at 1, 4, and 7 h after completion of infusion. Samples were also collected on Days 2 and 3; on Days 4 and 8 (immediately before dosing and immediately after completion of infusion); on Day 11 immediately before dosing, immediately after completion of infusion, and at 4 and 7 h after completion of infusion; and on Day 15. On schedule B, blood samples were collected within 1 h before dosing on Day 1, immediately after completion of infusion (immediately before switching off infusion pump), and at 1, 2, 4, and 7 h after completion of infusion. Samples were also collected on Days 2, 3, and 4; and on Days 8 and 15 (immediately before dosing and immediately after completion of infusion). Samples were analyzed at Tandem Labs (West Trenton, NJ) for pevonedistat plasma concentrations using Good Laboratory Practice-validated liquid chromatography/tandem mass spectrometry methods. The dynamic ranges were 1–500 ng/mL for the low-range assay and 75–7500 ng/mL for the high-range assay.\n(§4) The PK-evaluable population included all patients who received all protocol-defined doses in Cycle 1, had sufficient plasma concentration–time data to reliably estimate PK parameters, and had not received any excluded concomitant medications per protocol. Individual pevonedistat plasma concentration–time data were analyzed by noncompartmental methods using WinNonlin software (Version 6.2, Pharsight Corporation, Cary, NC). Plasma concentrations below the lower limit of quantification were set to zero for analysis."}, "[1]": {"system": "patients with solid tumors", "parameters": "method as in PMID 26423795", "settings": "cited from earlier work"}, "[2]": {"system": "treatment-naïve elderly patients with AML", "parameters": "method as in earlier work", "settings": "in combination with azacitidine, Days 1, 3, and 5 schedule; cited from earlier work"}, "[3]": {"test": "Plasma pharmacokinetics (LC/MS/MS, noncompartmental analysis)", "settings": "for Dose proportionality of plasma exposure: 50–278 mg/m^2, after Day 1 intravenous infusion; for Disposition profile following completion of the intravenous infusion: schedules A and B", "quoted_text": "as §3, §4"}, "[4]": {"system": "patients with metastatic melanoma", "test": "Antitumor activity, response by modified RECIST v1.1", "type": "in vivo, human", "experimental": "(§1) Adverse events (AEs) were graded using the National Cancer Institute’s Common Terminology Criteria for AEs version 3.0. Response was assessed using the modified RECIST guideline (v1.1). Computed tomography or magnetic resonance imaging scans were performed at screening, at the end of Cycle 2, and then every other cycle."}, "[5]": {"system": "patients with multiple myeloma or lymphoma", "parameters": "method as in PMID 26561559", "settings": "cited from earlier work"}, "NAE": {"system": "NAE", "parameters": "method as in PMID 21779466, PMID 15688063, PMID 19360080, PMID 23416079, PMID 24853380", "settings": "NAE inhibition; cited from earlier work"}, "[6]": {"system": "NAE-regulated transcriptional targets (ATF3, GCLM, GSR, MAG1, NQ01, SLC7A11, SRXN1, and TXNRD1)", "test": "RT-PCR of NAE-regulated transcripts in whole blood", "type": "in vivo, human", "experimental": "Blood samples for PD analysis were collected during Cycle 1. […] On schedule B samples were collected: at screening; on Day 1 within 1 h before dosing and 1, 2, 4, and 8 h after completion of infusion; on Day 8 within 1 h before dosing; and on Day 15 within 1 h before dosing and 1, 2, and 4 h after completion of infusion. Gene expression of NAE-regulated transcriptional targets (ATF3, GCLM, GSR, MAG1, NQ01, SLC7A11, SRXN1, and TXNRD1) in whole blood was analyzed by reverse-transcription polymerase chain reaction (RT-PCR). Raw data were transformed prior to calculation of percent change and assumptions were made for missing data, as previously described. Summary statistics were generated for the percent change from baseline at each time point for each gene."}, "[7]": {"system": "patients with metastatic melanoma", "test": "Adverse events (NCI CTCAE v3.0) in the phase I study, safety population", "type": "in vivo", "experimental": "(§2) Patients received pevonedistat as 1 h intravenous infusions either on Days 1, 4, 8, and 11 (schedule A) or on Days 1, 8, and 15 (schedule B, weekly dosing) of 21-day cycles. For schedule A, intermittent dosing on Days 1, 4, 8, and 11 was chosen to match the twice-weekly schedule of the proteasome inhibitor bortezomib. The starting dose of 50 mg/m^2 was selected based on the toxicities and the MTD observed in another phase I study that investigated pevonedistat administration on Days 1–5 of 21-day cycles in patients with advanced solid tumors. It was hypothesized that intermittent dosing – extending the dose over a 2-week period – would be better tolerated than the continuous dosing schedule, which was associated with severe hepatotoxicity. Schedule B, which was added subsequently through a protocol amendment, was based on the rationale that weekly bortezomib has similar efficacy and is more convenient than the twice-weekly schedule. […] Patients could receive pevonedistat until disease progression or unacceptable drug-related toxicity, up to a maximum of 12 months.\nas §1"}, "[8]": {"system": "patients with relapsed/refractory AML or MDS", "parameters": "method as in PMID 25733005", "settings": "cited from earlier work; for MTD: single-agent"}, "[9]": {"system": "patients with metastatic melanoma", "test": "Dose escalation: DLTs and MTD determination (Bayesian continual reassessment method)", "type": "in vivo", "settings": "schedule A (Days 1, 4, 8, and 11 of 21-day cycles), 1 h intravenous infusion", "experimental": "as §2\nDose escalation proceeded via a Bayesian continual reassessment method using 2-patient cohorts and 1.33-fold dose increments over the previous dose level. Dose escalation decisions were based on occurrence of DLTs in Cycle 1 and the predicted MTD from the continual reassessment model (Supplementary Fig. S1). […]"}, "[10]": {"system": "pevonedistat–NEDD8 adduct, Cdt1 and Nrf-2", "test": "Immunohistochemistry of paired tumor biopsies", "type": "in vivo, human", "experimental": "For patients in the MTD expansion cohort, paired tumor biopsies were obtained at screening and at 3–6 h post-dosing on Day 4 (schedule A) or Day 8 (schedule B). […] Immunohistochemical analyses were performed at Millennium Pharmaceuticals, Inc. as previously described."}, "[11]": {"settings": "nine melanoma patients in the first-in-human phase I study"}, "[12]": {"settings": "human, plasma, intravenous, 157 mg/m^2"}, "[13]": {"settings": "the patient with partial response, 209 mg/m^2 schedule A"}, "[14]": {"settings": "Cycle 1, Day 1, 7 h post-dose, Schedule A MTD, 209 mg/m^2 (n=11)"}, "[15]": {"settings": "Cycle 1, Day 1, 8 h post-dose, Schedule B, 157 mg/m^2 (n=8)"}}, "note": "Where “and” joins values, the source holds several entries; their conditions need not be identical. Identical values can stand only once. Entries after “also recorded” stand apart in the source; their conditions may differ. Like-named read-outs stand apart in the source and are kept apart here."}
{"compound": "NS(=O)(=O)OC[C@@H]1C[C@@H](n2ccc3c(N[C@H]4CCc5ccccc54)ncnc32)C[C@@H]1O", "note": "[pevonedistat, Pevonedistat]", "values": [{"measurement": "Tmax", "setting": "clinical", "result": 1, "unit": "h"}, {"measurement": "clearance", "setting": "clinical", "result": 635, "unit": "mL/min"}, {"measurement": "half-life", "setting": "clinical", "result": 10.4, "unit": "h"}, {"measurement": "MTD", "setting": "[1]; Days 1–5 and Days 1, 3, and 5 schedules", "result": "50–67 mg/m^2"}, {"measurement": "DLTs", "setting": "[1]", "result": "ALT elevation, AST elevation, and hyperbilirubinemia"}, {"measurement": "Duration of stable disease in another patient", "setting": "[1]; [11]", "result": 6, "unit": "months"}, {"measurement": "Patients achieving a partial response", "setting": "[1]; [11]", "result": "one"}, {"measurement": "MTD", "setting": "[2]", "result": 20, "unit": "mg/m^2"}, {"measurement": "Dose proportionality of plasma exposure", "setting": "[3]", "result": "increased approximately proportionally with dose"}, {"measurement": "Dose proportionality of plasma exposure", "setting": "[3]; listed as Pevonedistat", "result": "approximately dose-proportional"}, {"measurement": "AUC(0-inf)", "setting": "[3]; [12]", "result": 8930, "unit": "ng·h/mL"}, {"measurement": "AUC(0-t)", "setting": "[3]; [12]", "result": 7250, "unit": "ng·h/mL"}, {"measurement": "Cmax", "setting": "[3]; [12]", "result": 2450, "unit": "ng/mL"}, {"measurement": "Tmax", "setting": "[3]; [12]", "result": 1, "unit": "h"}, {"measurement": "clearance", "setting": "[3]; [12]", "result": 647, "unit": "mL/min"}, {"measurement": "half-life", "setting": "[3]; [12]", "result": 10.1, "unit": "h"}, {"measurement": "half-life", "setting": "[3]; human, plasma, iv", "result": "~10", "unit": "h"}, {"measurement": "Disposition profile following completion of the intravenous infusion", "setting": "[3]", "result": "biphasic disposition phase"}, {"measurement": "Disposition profile following completion of the intravenous infusion", "setting": "[3]; listed as Pevonedistat", "result": "biphasic disposition profile"}, {"measurement": "Best response: progressive disease", "setting": "[4]; 31 response-evaluable patients", "result": "15 (48 %) patients"}, {"measurement": "Best response: stable disease", "setting": "[4]; 31 response-evaluable patients, schedule A and B", "result": "15 patients and 15 (48 %) patients"}, {"measurement": "Patients with stable disease lasting 6.5 months or longer", "setting": "[4]; among the 15 patients who achieved stable disease", "result": 4, "unit": "patients"}, {"measurement": "Duration of response", "setting": "[4]; [13]", "result": 1.55, "unit": "months"}, {"measurement": "Overall duration of stable disease or better", "setting": "[4]; [13]", "result": 4.4, "unit": "months"}, {"measurement": "MTD", "setting": "[5]; Day 1, 2, 8, and 9 schedule", "result": 110, "unit": "mg/m^2"}, {"measurement": "MTD", "setting": "[5]; Days 1, 4, 8, and 11 of 21-day cycles", "result": 196, "unit": "mg/m^2"}, {"measurement": "DLTs", "setting": "[5]", "result": "febrile neutropenia, AST elevation, muscle cramps, and thrombocytopenia"}, {"measurement": "Fraction of the proteins regulated by the UPS whose proteasomal degradation is prevented", "setting": "NAE", "result": "~ 20%"}, {"measurement": "ATF3 transcript, median % change from baseline (range)", "setting": "[6]; [14]", "result": "88.6 (–38.6 to 385.0) %"}, {"measurement": "GCLM transcript, median % change from baseline (range)", "setting": "[6]; [14]", "result": "105.3 (–33.0 to 234.2) %"}, {"measurement": "GSR transcript, median % change from baseline (range)", "setting": "[6]; [14]", "result": "196.6 (–54.2 to 447.6) %"}, {"measurement": "MAG1 transcript, median % change from baseline (range)", "setting": "[6]; [14]", "result": "99.1 (–22.4 to 236.4) %"}, {"measurement": "NQ01 transcript, median % change from baseline (range)", "setting": "[6]; [14]", "result": "681.2 (–49.7 to 2740.6) %"}, {"measurement": "SLC7A11 transcript, median % change from baseline (range)", "setting": "[6]; [14]", "result": "837.0 (–65.3 to 3873.9) %"}, {"measurement": "SRXN1 transcript, median % change from baseline (range)", "setting": "[6]; [14]", "result": "142.0 (–50.5 to 340.0) %"}, {"measurement": "TXNRD1 transcript, median % change from baseline (range)", "setting": "[6]; [14]", "result": "220.7 (–41.7 to 347.7) %"}, {"measurement": "ATF3 transcript, median % change from baseline (range)", "setting": "[6]; [15]", "result": "260 (30.8 to 541.4) %"}, {"measurement": "GCLM transcript, median % change from baseline (range)", "setting": "[6]; [15]", "result": "65.4 (20.0–108.0) %"}, {"measurement": "GSR transcript, median % change from baseline (range)", "setting": "[6]; [15]", "result": "176.2 (93.2–216.6) %"}, {"measurement": "MAG1 transcript, median % change from baseline (range)", "setting": "[6]; [15]", "result": "81.7 ( 39.0–158.2) %"}, {"measurement": "NQ01 transcript, median % change from baseline (range)", "setting": "[6]; [15]", "result": "833.8 (330.6–2202.3) %"}, {"measurement": "SLC7A11 transcript, median % change from baseline (range)", "setting": "[6]; [15]", "result": "727.4 (184.7 to 1660.0) %"}, {"measurement": "SRXN1 transcript, median % change from baseline (range)", "setting": "[6]; [15]", "result": "81.5 (43.3 to 185.3) %"}, {"measurement": "TXNRD1 transcript, median % change from baseline (range)", "setting": "[6]; [15]", "result": "156.9 (87.8 to 234.9) %"}, {"measurement": "Change of all eight NAE-regulated gene transcripts post-treatment", "setting": "[6]; MTD on schedule A and schedule B", "result": "increases in NAE-regulated transcripts post-treatment; also recorded: significantly increased"}, {"measurement": "Doses at which induction of all NAE-regulated transcriptional targets was observed", "setting": "[6]; data not shown", "result": "≥ 50", "unit": "mg/m^2"}, {"measurement": "On-study death", "setting": "[7]; Schedule A (n = 26)", "result": "2 (8) n (%)"}, {"measurement": "On-study death", "setting": "[7]; Schedule B (n = 11)", "result": "1 (9) n (%)"}, {"measurement": "Severity of peripheral neuropathy", "setting": "[7]; human, in vivo", "result": "mild (grade 1)"}, {"measurement": "Patients who experienced acute organ failure toxicities", "setting": "[7]; in vivo", "result": "Two"}, {"measurement": "Tolerability at the MTD", "setting": "[7]; schedule A, 209 mg/m^2", "result": "generally well tolerated"}, {"measurement": "Drug-related death", "setting": "[7]; schedule A, 209 mg/m^2, one patient after one dose, Day 9 of Cycle 1", "result": "grade 5 acute renal failure; also recorded: died due to drug-related acute renal failure"}, {"measurement": "DLTs", "setting": "[8]", "result": "multi-organ failure, reversible ALT elevation, AST/ALT elevation, cardiac failure, and acute renal failure"}, {"measurement": "MTD", "setting": "[8]; Days 1, 3, and 5 of 21-day cycles", "result": "50/59"}, {"measurement": "MTD", "setting": "[8]; Days 1, 4, 8, and 11 schedule", "result": 83, "unit": "mg/m^2"}, {"measurement": "Maximum tolerated dose (MTD)", "setting": "[9]", "result": 209, "unit": "mg/m^2"}, {"measurement": "pevonedistat–NEDD8 adduct in post-dose tumor biopsy samples", "setting": "[10]; 3–6 h after Cycle 1, Day 4 dose, 3 patients, Schedule A MTD expansion cohort", "result": "positive"}, {"measurement": "Immunohistochemical expression of Cdt1 and Nrf-2 in tumor", "setting": "[10]; one patient with adequate biopsy tissue, schedule A MTD", "result": "increased post-treatment"}]}
